Results from the METLIN SMRT retention time set (Domingo-Almenara et al. 2019).

Test: gradient 5% acetonitrile 3 min, to 50% in 2 min, to 85% in 15 min, held 3 min, 100 µL/min
Conditions: column: Zorbax Extend-C18 2.1 x 50 mm; eluents: water / acetonitrile, 0.1% formic acid
Method in brief: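 In both positive and negative ionization mode, a quadrupole time-of-flight mass spectrometer coupled to HPLC analyzed pure standards run in mixtures of ~100 molecules. The Zorbax Extend-C18 column (2.1 × 50 mm, 1.8 μm) was operated at 100 μL/min with water and acetonitrile, each containing 0.1% formic acid. The dead volume was 40 μL and the dwell volume 900 μL. Retention time came from adduct peaks that were computationally picked and individually inspected by hand.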

SMILES	RP-LC retention time
O=C(NCCOc1ccccc1)c1ccccc1C(=O)c1ccccc1	918 s
CCc1cccc(NC(=O)Cn2c(=O)nc(N3CCC(C)CC3)c3ccccc32)c1	898 s
Fc1ccccc1-c1ccc(CNCc2ccccn2)o1	655 s
CCn1c(=O)c(N2CCC(NC(=O)Nc3ccc4c(c3)OCCO4)CC2)nc2ccccc21	838 s
COc1ccc(NC(=O)NC(C)C(=O)N2CCc3ccccc32)cc1OC (centres undefined)	742 s
O=C(Nc1cnc(-c2ccccc2)nc1)c1ccc(Cl)cc1	1050 s
O=C(NCc1ccccc1)C12CC3CCC(CC(C3)C1)C2	1020 s
Fc1cccc(Cc2nc(-c3cccc(-c4ccn[nH]4)c3)no2)c1	915 s
Cn1c(C2CCN(C(=O)Nc3ccc(Cl)cc3F)CC2)cc(=O)n2nccc12	670 s
Cc1cc(OCC(=O)NCCn2nc(-c3cccnc3)ccc2=O)ccc1Cl	617 s
CCN(C(=O)c1nc(C)n(C2CCN(S(C)(=O)=O)CC2)c1C)c1ccccc1	610 s
Cc1cccc(-c2noc(Cn3ccn(-c4cc(C)ccc4C)c(=O)c3=O)n2)c1	963 s
CC(C)c1ccc(NC(=O)N2CCN(c3ccc4nncn4n3)CC2)cc1	672 s
O=C(NCC1CCCO1)C(=O)NCC(c1ccc2c(c1)OCO2)N1CCOCC1 (centres undefined)	583 s
Cc1nn(-c2ccccc2)c(C)c1S(=O)(=O)N1CCC(C(=O)N2CCCC2)CC1	786 s
Cc1cccc(C2CN(C)CCc3c2cc(O)c(O)c3Cl)c1 (centres undefined)	648 s
Clc1ccc(Cc2nc3nc4c(c(N5CCN(c6ccccn6)CC5)n3n2)CCCC4)cc1	718 s
CCOc1ccc(CCNC(=O)c2cc3sc(Cl)cc3n2C)cc1OCC	1110 s
O=C(Nc1ccc(N2CCN(c3ccccc3)C2=O)nc1)c1cccs1	836 s
Cc1cnc(C(=O)N2CCC(F)(F)C(COCC3CC3)C2)cn1 (centres undefined)	794 s
CCOc1ccccc1NS(=O)(=O)c1c(C(=O)OC)sc2cccc(F)c12	974 s
COC(=O)N1CCN(CCNC(=O)Cc2cccc3ccccc23)CC1	574 s
O=C(CCCn1c(=O)c2cccn2c2ccccc21)NCCCN1CCC(N2CCCCC2)CC1	584 s

SMILES	RP-LC retention time
O=C(NC1CC1)c1ccc(OCC2CCCN(C(=O)c3ccc(F)c(F)c3)C2)cc1 (centres undefined)	820 s
Cc1nc(NC2=NCN(CCc3cccs3)CN2)nc2ccccc12	731 s
CCOc1ccc(-c2noc(N3CCC(C(=O)NCC4CCCO4)CC3)n2)cc1OC (centres undefined)	749 s
CC(C)c1ccc(S(=O)(=O)N2CCC(C(=O)NCc3csc(-c4ccccc4)n3)CC2)cc1	1070 s
Cc1ccn2cc(CNS(=O)(=O)c3ccc(-c4ccccc4)cc3)nc2c1	588 s
Cc1ccc(-c2cc(C(=O)N3CCN(C)CC3)n(C)c2)cc1	644 s
CC(C)n1c(=O)c(NCc2ccc(F)cc2Cl)nc2ccncc21	686 s
CCOc1nc2ccccc2nc1N1CCCC(C(=O)N2CCc3ccccc3C2)C1 (centres undefined)	1310 s
COCc1cc2nn(CC(=O)Nc3ccc(C)cc3F)c(=O)n2c(-c2ccccc2)n1	858 s
CC(=O)N1CCC(C(=O)N(C)C2CCc3nn(C)c(=O)n3CC2)CC1 (centres undefined)	569 s
O=C(CSc1nnc(-c2csc3c2CCCC3)o1)Nc1ccccc1	769 s
Cc1ccc(CS(=O)(=O)N2CCC(CN3CCCCCC3)CC2)cc1C	723 s
O=C(c1cnccn1)N1CCN(c2cc(-c3ccc(Cl)cc3)[nH]n2)CC1	722 s
O=C(NC1CCCCC1)c1nnc(-c2ccc(S(=O)(=O)N3CCCCC3)cc2)o1	1040 s
COc1ccccc1-c1nc(Cn2nnc(-c3nc(-c4ccc(C)cc4)no3)c2C)c(C)o1	1170 s
COc1ccc(C(=O)Nc2cccn3nc(C)nc23)cc1	719 s
O=C(c1ccnc(-c2cccs2)c1)N1CCN(c2ncccn2)CC1	749 s
CC(=O)Nc1ccc(SCc2nnc(-c3ccccc3)o2)cc1	763 s
CCNC(=O)N1CCCC(c2cccc(C(=O)NCc3ccccc3C)c2)C1 (centres undefined)	775 s
CC(=O)Nc1ccc(-c2noc(C3CCCN(C(=O)Cc4ccc(Br)cc4)C3)n2)cc1 (centres undefined)	872 s
Cc1nc(N2CCOCC2)c2c(C(=O)Nc3ccccc3Cl)c(C)oc2n1	911 s
CCOc1ccc(-n2c(=O)c3sccc3n(Cc3nc(-c4ccc(C)cc4)no3)c2=O)cc1	1090 s
COC(=O)c1ccccc1NC(=O)NCCn1c(C)nc2ccccc21	630 s

SMILES	RP-LC retention time
CC(=O)Nc1cccc2c(C(=O)NCCC(C)C)ccnc12	777 s
COC(=O)C1=C(C)NC(C)=C(C(=O)OCCN2CCN(C(c3ccccc3)c3ccccc3)CC2)C1c1cccc([N+](=O)[O-])c1 (centres undefined)	1020 s
O=C(C(=O)N1CCN(c2ccc(F)cc2)CC1)c1ccc[nH]1	753 s
CC(C)NC(=O)c1csc(N2CCCCC2)n1	919 s
Cc1ccc(-c2noc(C3CCCN3S(=O)(=O)c3ccc4c(c3)CCC4)n2)cc1 (centres undefined)	1280 s
CCC(=O)N1CCc2c(C(=O)N3CCN(c4cc(C)ccc4C)CC3)cccc21	1040 s
O=C(C1CCN(S(=O)(=O)c2ccc(-c3noc(-c4ccccn4)n3)cc2)CC1)N1CCCC1	792 s
O=C1CCN(C(=O)c2cccs2)CCCC(CO)CCN1 (centres undefined)	581 s
CS(=O)(=O)c1ccc(CC(=O)Nc2nnc(C3CCCO3)o2)cc1 (centres undefined)	578 s
COC(=O)c1c(NC(C)c2ccc(F)cc2)c2cccc(Cl)c2[nH]c1=O (centres undefined)	858 s
Cc1ccccc1Cn1c(CN2CCC(C(=O)NCCC3=CCCCC3)CC2)cc2ccccc21	928 s
Cc1nnc(NC(=O)CN(C)c2nc3c(Cl)cccc3s2)s1	742 s
CCC(=O)N(C1CCOCC1)C1CCN(S(=O)(=O)c2ccc(F)cc2F)CC1	998 s
COC(=O)c1c(C)c(C(=O)C(C)N(CC(C)C)C(=O)c2ccc(F)cc2)c(C)n1C (centres undefined)	1020 s
CCCc1nnc(NC(=O)C2CCN(C(=O)c3cccc(F)c3)CC2)s1	727 s
Cc1ncsc1CN1CCCC(n2c(C)cnc2-c2ccncc2)C1 (centres undefined)	533 s
CCCNC(=O)N1CCN(c2nc(CC(C)C)c3c(c2C#N)CC(C)(C)OC3)CC1	1090 s
Cn1c(=O)c2nc(SCCC(=O)Nc3ccc(N4CCOCC4)cc3)n(C)c2n(C)c1=O	620 s
O=C(Nc1ccccn1)c1csc2nc(-c3ccc(F)cc3)cn12	808 s
CCCN(CC1CCOC1)C(=O)Nc1cccc(C)c1C (centres undefined)	818 s
Cc1cccc(C)c1NC(=O)Cn1ncc2c(N3CCN(c4ccccn4)CC3)ncnc21	606 s
COc1ccc(S(=O)(=O)N2CCC(c3noc(-c4ccc(Cl)cc4)n3)CC2)cc1	1140 s
Cc1cnn(CC(=O)N2CCC3(CC2)CC(C)(O)CCO3)c1 (centres undefined)	603 s

SMILES	RP-LC retention time
COc1ccc(N2CCN(C(=O)C3CCCN(c4cc(=O)n(C)c(=O)n4C)C3)CC2)cc1 (centres undefined)	696 s
Cc1cc(NC(=O)N2CCC(n3c(C)nc4cccnc43)CC2)ccc1Br	706 s
CCOc1ccc(N2CC(NC(=O)Nc3ccc(OC(F)F)cc3)CC2=O)cc1 (centres undefined)	754 s
Cc1ccn2cc(C(=O)NCc3ccc4c(c3)OCO4)nc2c1	679 s
CN(CCNC(=O)C1CCc2nc(N3CCOCC3)ncc2C1)C1CCCCC1 (centres undefined)	586 s
O=C(Cn1nc2c(N3CCCCCC3)nccn2c1=O)Nc1ccccc1Cl	708 s
Cc1nc2c(sc3nc(-c4ccccc4)ccc32)c(=O)n1CC(=O)NCc1ccc(Cl)cc1	1210 s
COC(=O)c1c(C)[nH]c(C(=O)N2CCC(CC(=O)NC(C)c3ccccc3)CC2)c1C (centres undefined)	762 s
O=C(Nc1ccccc1)N1CCc2[nH]cnc2C1c1ccccc1 (centres undefined)	625 s
CC(NC(=O)C(C)n1c2ccccc2c2cnn(C)c(=O)c21)C(=O)N1CCCCC1 (centres undefined)	764 s
CC(C)CNC(=O)C1CCN(C(=O)c2ncn3c2COC(c2ccc(F)cc2)C3)CC1 (centres undefined)	711 s
Cc1cc(C)n2nc(SCC(=O)Nc3cccc(C(F)(F)F)c3)nc2n1	827 s
Cc1ccc(C)c(-n2c(-c3ccc(Cl)cc3)cn3c4c(=O)n(C)c(=O)n(C)c4nc23)c1	1110 s
O=C(NCc1ccco1)C1CCCN(c2nnc3ccc(Cl)cn23)C1 (centres undefined)	687 s
Cc1c(C(=O)NC2CC2)cnn1-c1ccc(-c2nc(C(C)(C)C)no2)cn1	947 s
Cc1oc2ccn(Cc3ccccc3F)c(=O)c2c1C(=O)NCc1cccc(F)c1	726 s
COc1cc(NS(=O)(=O)c2ccc3c(c2)-c2oncc2CO3)cc(OC)c1	884 s
COc1ccc(-c2nc(CNC(=O)c3ccc(-n4cccn4)nn3)cs2)cc1	855 s
O=C(NCc1ccco1)c1ccc2c(c1)CCCN2C(=O)c1ccc(Cl)cc1	852 s
CCn1c(=O)c(N2CCC(NC(=O)Nc3cccc(Br)c3)CC2)nc2ccccc21	1040 s
